Measured values reported in patent publication US20030022243A1, “Protein aggregation assays and uses thereof” (priority 2001, published 2003).
One block for each molecule: values may come before it.

Assays:
Type in all cases: biochemical
apo-SOD-1 = apo-SOD-1 (Homo sapiens, UniProt P00441); experiment: Native state stabilization assay (thermal aggregation of apo-SOD-1, RP-HPLC of soluble SOD-1); conditions: apo-SOD-1 incubated at 60° C. with exogenous metal
Procedure: Apo-SOD-1 was prepared from holo-SOD-1 as reported (Crow et al., J. Neurochem., 69:1936, 1997). Holo-SOD-1 was first extensively dialyzed against 10 mM sodium acetate buffer containing 1 mM EDTA, pH 3.8 for 24-72 hours, then dialyzed against 10 mM sodium acetate buffer containing 100 mM NaCl, pH 3.8, and finally dialyzed against the desired buffer.
For FIG. 17, apo-SOD-1 (100 μl) prepared as described above at a concentration of 30 μM in 10 mM sodium acetate buffer, pH 5.0, was incubated for 24 hours at either 4°, 37°, or 60° C. in sealed polypropylene tubes. […] RP-HPLC was carried out on a Zorbax SB300 C8 column (3.0×10 cm, 3.5 μm particle size) using a linear 4% B per min AB gradient at a flow rate of 1.0 ml/min, where A was 0.1% aqueous TFA and B was 0.1% TFA in acetonitrile. Detection was based on UV absorbance at 215 nm. In contrast, the sample incubated at 60° C. contained essentially no soluble SOD-1 in the supernatant as measured by the same method of analysis.
An example of the use of the native state stabilization assay to test agents for inhibition of aggregation can be found in FIG. 18. Apo-SOD-1 samples were incubated under various conditions and analyzed by RP-HPLC to quantitate amounts of soluble SOD-1 remaining. Apo-SOD-1 incubated at 4° C. […] (positive aggregation control; chromatogram a). […]

Zinc-deficient SOD-1 = Zinc-deficient SOD-1 (Homo sapiens, UniProt P00441); experiment: MCO-induced aggregation of zinc-deficient SOD-1, light scattering; conditions: 37° C.
Chain of Zinc-deficient SOD-1 (P00441 2-154 limits assumed): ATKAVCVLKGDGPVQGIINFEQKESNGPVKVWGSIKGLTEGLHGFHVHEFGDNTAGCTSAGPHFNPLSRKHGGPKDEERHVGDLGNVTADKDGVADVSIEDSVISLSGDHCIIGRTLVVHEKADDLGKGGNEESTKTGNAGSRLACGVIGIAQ
Procedure: Apo-SOD-1 was incubated in the presence of a 1.1-fold molar excess of CuCl2 in 17 mM sodium acetate buffer, pH 3.8, for 24 hours at 40° C.
Zinc-deficient SOD-1 was prepared, MCO-treated, and used to test various compounds and conditions for their effect on SOD-1 aggregation. Zinc-deficient SOD-1 aggregation mixtures were incubated with either 2 mM EDTA, 10 mM mannitol, or 10 mM DMPO as probes for the reactive oxygen species. Anaerobic conditions were achieved by degassing all solutions and oxidizing under vacuum (37° C.) in a vacuum hydrolysis tube (Pierce). Aggregates were detected using light scattering measurements made with a Photon Technology International QM-1 fluorescence spectrophotometer. Excitation and emission wavelengths were set to 350 nm (bandpass=4 nm).

[1] = target: T1, SOD-1, from human erythrocytes (Homo sapiens, UniProt P00441); experiment: MCO (ascorbate/Cu)-induced SOD-1 aggregation, right angle light scattering
T1 construct: SOD-1 was purchased from Sigma (purified from erythrocytes) and dissolved in the appropriate buffer; purchased Sigma-Aldrich Fine Chemicals (St. Louis, Mo., USA); host or cells: human erythrocytes
T1 sequence (P00441 2-154 limits assumed): as above
Procedure: The effect of pH, copper ions, and ascorbic acid on the induction of SOD-1 aggregation was examined as follows. […] Right angle light scattering was measured at room temperature using a Photon Technology International QM-1 fluorescence spectrophotometer. Both the excitation and emission wavelengths were set to 350 nm and a 1 nm bandpass. A cuvette with an excitation and emission path lengths of 2 mm and 10 mm, respectively was used for the measurements.
In addition, right angle light scattering was measured using a DynaPro99 Molecular Sizing Instrument with attached MicroSampler-MSXTC/12 (Protein Solutions, Inc., Charlottesville, Va.). A 12 μl-DynaPro quartz cuvette with a path length of 1.5 mm was used for all experiments. In the measurement, the SOD-1 sample solution was illuminated by a 60 mW, 825 nm solid-state laser, and the intensity of light scattered at a 90° angle was measured directly as the solution photon count rate in units of kcounts/sec. The averaged count rate was automatically calculated after all acquisitions of the measurements.

[2] = 10 mM free radical scavenger in the oxidation reaction

Chain of apo-SOD-1 (P00441 2-154 limits assumed): as above

SMILES: [Cu] [copper]
- soluble SOD-1 remaining versus apo-SOD-1 without exogenous metal (RP-HPLC) (apo-SOD-1): significantly more soluble SOD-1

SMILES: [Zn] [zinc]
- soluble SOD-1 remaining versus apo-SOD-1 without exogenous metal (RP-HPLC) (apo-SOD-1): significantly more soluble SOD-1

SMILES: [Cl][Cu][Cl] [CuCl2]
- induction of SOD-1 aggregates ([1]; 25 μM CuCl2 in 10 mM sodium phosphate, no ascorbic acid, 38 hours): no aggregates of SOD-1 were induced
- relative amount of aggregation induced by ascorbic acid ([1]; addition of 25 μM CuCl2 to 2 mM ascorbic acid): significantly enhanced

SMILES: CC1(C)CCC=[N+]1[O-] [DMPO]
- inhibition of MCO-induced aggregation (light scattering) (Zinc-deficient SOD-1; [2]): did not inhibit aggregation

SMILES: O=C(O)CN(CCN(CC(=O)O)CC(=O)O)CC(=O)O [EDTA]
- inhibition of MCO-induced aggregation (light scattering) (Zinc-deficient SOD-1; 2 mM EDTA in the oxidation reaction): inhibited aggregation

Second part, the molecule after the results:

- inhibition of MCO-induced aggregation (light scattering) (Zinc-deficient SOD-1; [2]): did not inhibit aggregation
SMILES: OC[C@@H](O)[C@@H](O)[C@H](O)[C@H](O)CO [mannitol]

- induction of SOD-1 aggregates detectable by right angle light scattering ([1]; 2 mM ascorbic acid, 10 mM phosphate buffer pH 6, 37° C., 38 hours): resulted in the formation of aggregates
SMILES: O=C1O[C@H]([C@@H](O)CO)C(O)=C1O [ascorbic acid]
